# Patent US9370189B2, “Controlling Pseudomonas aeruginosa persister cells with GM-CSF” (priority 2012, dated 2016)
# Several values for one entry are separate records, joined by “and”; a condition that tells them apart may be missing. Identical values can stand only once.
# Columns and labels:
# P. aeruginosa PAO1 [1] = experiment: Effect of GM-CSF on planktonic PAO1 cells (total viable cells and persisters) at exponential phase, alone and with antibiotic, CFU by drop plate; type: cell-based, Pseudomonas aeruginosa; conditions: for % change in avg. CFU/ml after adding factor + CIP / % change in avg. CFU/ml after adding factor + GEN / % change in avg. CFU/ml after adding factor + TET / % change in avg. CFU/ml after adding factor + TOB / average CFU/mL of persisters reduced by / average CFU/mL of total viable cells reduced by: planktonic PAO1; for % change in avg. CFU/ml after adding factor + CIP: 2.43 pg/mL GM-CSF with 200 μg/mL ciprofloxacin; for % change in avg. CFU/ml after adding factor + GEN: 2.43 pg/mL GM-CSF with 200 μg/mL gentamicin; for % change in avg. CFU/ml after adding factor + TET: 2.43 pg/mL GM-CSF with 200 μg/mL tetracycline; for % change in avg. CFU/ml after adding factor + TOB: 2.43 pg/mL GM-CSF with 200 μg/mL tobramycin; for average CFU/mL of persisters reduced by / average CFU/mL of total viable cells reduced by: reduction
# Protocol: This Example describes the treatment of planktonic P. aeruginosa PAO1, PDO300 and Escherichia coli K12, with GM-CSF introduced directly or together with an antibiotic to test the synergy. All experiments were conducted with cells harvested from exponential phase subcultures with an optical density at 600 nm (OD600) of 0.3 to 0.4.
# In brief, after preparing an overnight culture of the tested strain in 25 ml LB medium, a subculture was prepared with an OD600 of 0.01 in 50 mL LB medium. The subculture was incubated at 37° C. with shaking at 200 rpm for 3-4 h, till an OD600 of 0.3 to 0.4 was reached. The exponential phase subculture was then divided equally into two centrifuge tubes, each containing 25 mL of the subculture. The subcultures were washed twice with 0.85% NaCl buffer by vortexing and then centrifuging at 4° C., 8000 rpm for 10 min each time. The washed subcultures/cells were resuspended in 25 mL 0.85% NaCl buffer and vortexed gently for 1 min. One of the tubes of subculture was selected for isolation of persisters by adding 200 μg/mL ciprofloxacin (for PAO1 and PDO300 strains) or 100 μg/mL ampicillin (for E. coli K12 strain). After adding the antibiotic for persister isolation, the subculture was incubated at 37° C., shaking at 200 rpm for 3.5 h.
# To test the effects of GM-CSF on viability of persisters, the second tube was used to quantify the total number of viable cells and 1 mL of the washed persister cells was divided into 6 microcentrifuge tubes; 3 were control and the other 3 were GM-CSF treatment samples. In the treatment samples, GM-CSF was added to a concentration of 2.43 pg/mL (or 0.17 pM), the same as found in healthy human bodies. The control samples were supplemented with the same concentration of PBS and BSA as present in 2.43 pg/mL (or 0.17 pM) GM-CSF samples.
# After incubating at 37° C. for 1 h with shaking at 200 rpm, the samples were plated on LB agar plates (15 g/L bacto agar) using drop plate method. The agar plates were then incubated for 24 h at 37° C. to count the total number of persister cells and understand the effect of 0.17 pM GM-CSF on the viability of persister cells.
# To test the synergy with antibiotics, the above samples were then incubated at 37° C. for 3.5 h with shaking at 200 rpm after adding the selected antibiotic. After 3.5 h, the CFU of samples was quantified in the same way to understand if there is any synergy between GM-CSF and antibiotic. Similar treatments were performed on the total population in exponential phase as well. Apart from exponential phase, the synergistic effects of GM-CSF with antibiotics on total viable cells and persisters were also evaluated at stationary phase but PBS buffer (pH=7.4) was used in the experiments instead of 0.85% NaCl solution. Moreover, the 1 h and 3.5 h treatments were performed as co-treatments.
# [2] = tested on: membrane fractions of P. aeruginosa; experiment: GM-CSF binding to non-denatured cellular fractions (non-denatured PAGE, Western blotting); set-up: species or system Pseudomonas aeruginosa; conditions: P. aeruginosa fractions incubated with GM-CSF, Western blotting (FIG. 22)
# Protocol: Cell fractionation was done as described by George et al. (1986) with some modification. Briefly, cell pellets from stationary phase PAO1 were suspended in 1 ml of PBS buffer (pH7.2) containing 0.2 mg/mL lysozyme, protease inhibitor cocktail (Roche), chilled on ice, and sonicated (20 bursts, 10 s each at 70 W) with a Sonicator Q500 (Qsonica). The unbroken cells and debris were removed by centrifugation at 15,600×g for 5 min at 4° C. The supernatant was transferred to a 1.5 mL centrifuge tube, and the cell membranes were precipitated from the supernatant by centrifugation in a microcentrifuge at 15,600×g for 1 hour at 4° C. The supernatant was saved as cytoplasm fraction. To further separate inner and outer membrane proteins, the membrane pellets were thoroughly suspended in 0.1 ml of PBS buffer supplemented with 1% Sarkosyl by repeated pipetting. Following incubation for 30 minutes with intermittent mixing at room temperature, the suspension was centrifuged at 15,600×g for 1 hour at 4° C. […]
# Different cellular components (30 μL) from P. aeruginosa were mixed with GM-CSF (20 ng) and incubated at room temperature for 2 hours. […] The separated samples were then subjected to Western blotting and detected by Human GM-CSF Monoclonal Antibody as described in whole cell binding assay.
# P. aeruginosa PAO1 [3] = experiment: Effect of GM-CSF on planktonic PAO1 total population and persister cells at stationary phase, co-treatment with antibiotic; type: cell-based, Pseudomonas aeruginosa
# [4] = 2.43 pg/ml GM-CSF with 200 μg/mL ciprofloxacin
# [5] = 2.43 pg/ml GM-CSF with 200 μg/mL gentamicin
# [6] = 2.43 pg/ml GM-CSF with 200 μg/mL tetracycline
# [7] = 2.43 pg/ml GM-CSF with 200 μg/mL tobramycin
substance,measurement,setting,value
"GM-CSF: granulocyte macrophage-colony stimulating factor, a cytokine secreted by macrophages; recombinant human GM-CSF (R&D systems) in binding tests",persister cells rendered sensitive to the antibiotic ciprofloxacin,"P. aeruginosa PAO1 [1]; P. aeruginosa persister cells, GM-CSF at 2.43 pg/mL",more than 97%
same,% change in avg. CFU/ml after adding factor + CIP,P. aeruginosa PAO1 [1]; persisters,−97.95%
same,% change in avg. CFU/ml after adding factor + GEN,P. aeruginosa PAO1 [1]; persisters,−59.31%
same,% change in avg. CFU/ml after adding factor + TET,P. aeruginosa PAO1 [1]; persisters,−65.66%
same,% change in avg. CFU/ml after adding factor + TOB,P. aeruginosa PAO1 [1]; persisters,−81.42%
same,average CFU/mL of persisters reduced by,P. aeruginosa PAO1 [1]; [4],97.95%
same,average CFU/mL of total viable cells reduced by,P. aeruginosa PAO1 [1]; [4],15.38%
same,average CFU/mL of persisters reduced by,P. aeruginosa PAO1 [1]; [5],59.31%
same,average CFU/mL of total viable cells reduced by,P. aeruginosa PAO1 [1]; [5],10.53%
same,average CFU/mL of persisters reduced by,P. aeruginosa PAO1 [1]; [6],65.66%
same,average CFU/mL of total viable cells reduced by,P. aeruginosa PAO1 [1]; [6],23.06%
same,average CFU/mL of persisters reduced by,P. aeruginosa PAO1 [1]; [7],81.42%
same,average CFU/mL of total viable cells reduced by,P. aeruginosa PAO1 [1]; [7],34.62%
same,% change in avg. CFU/ml after adding factor,"P. aeruginosa PAO1 [1]; total viable cells, planktonic PAO1, exponential phase, 2.43 pg/mL GM-CSF alone, 1 h",−2.22% and −5.00% and −2.94% and −1.69%
same,% change in avg. CFU/ml after adding factor + CIP,P. aeruginosa PAO1 [1]; total viable cells,−15.38%
same,% change in avg. CFU/ml after adding factor + GEN,P. aeruginosa PAO1 [1]; total viable cells,−10.53%
same,% change in avg. CFU/ml after adding factor + TET,P. aeruginosa PAO1 [1]; total viable cells,−23.08%
same,% change in avg. CFU/ml after adding factor + TOB,P. aeruginosa PAO1 [1]; total viable cells,−34.62%
same,binding to cellular components,[2],preferentially binds to membrane fractions
same,% change in avg. CFU/mL by GM-CSF (compared to GM-CSF free control),"P. aeruginosa PAO1 [3]; persisters, 1.7 pM GM-CSF, 200 μg/mL ciprofloxacin",−53.8 ± 16.1%
same,% change in avg. CFU/mL by GM-CSF (compared to GM-CSF free control),"P. aeruginosa PAO1 [3]; persisters, 1.7 pM GM-CSF, 200 μg/mL gentamicin",−12.7 ± 8.8%
same,% change in avg. CFU/mL by GM-CSF (compared to GM-CSF free control),"P. aeruginosa PAO1 [3]; persisters, 1.7 pM GM-CSF, 200 μg/mL tobramycin",−82.7 ± 2.3%
same,% change in avg. CFU/mL by GM-CSF (compared to GM-CSF free control),"P. aeruginosa PAO1 [3]; persisters, 17 pM GM-CSF, 200 μg/mL ciprofloxacin",−74.0 ± 2.9%
same,% change in avg. CFU/mL by GM-CSF (compared to GM-CSF free control),"P. aeruginosa PAO1 [3]; persisters, 17 pM GM-CSF, 200 μg/mL gentamicin",−25.4 ± 10.6%
same,% change in avg. CFU/mL by GM-CSF (compared to GM-CSF free control),"P. aeruginosa PAO1 [3]; persisters, 17 pM GM-CSF, 200 μg/mL tetracycline",−91.2 ± 3.2%
same,% change in avg. CFU/mL by GM-CSF (compared to GM-CSF free control),"P. aeruginosa PAO1 [3]; persisters, 17 pM GM-CSF, 200 μg/mL tobramycin",−86.5 ± 1.7%
same,% change in avg. CFU/mL by GM-CSF (compared to GM-CSF free control),"P. aeruginosa PAO1 [3]; total viable cells, 1.7 pM GM-CSF, 200 μg/mL ciprofloxacin",−19.5 ± 15.6%
same,% change in avg. CFU/mL by GM-CSF (compared to GM-CSF free control),"P. aeruginosa PAO1 [3]; total viable cells, 1.7 pM GM-CSF, 200 μg/mL gentamicin",−13.1 ± 7.4%
same,% change in avg. CFU/mL by GM-CSF (compared to GM-CSF free control),"P. aeruginosa PAO1 [3]; total viable cells, 1.7 pM GM-CSF, 200 μg/mL tobramycin",−9.4 ± 20.0%
same,% change in avg. CFU/mL by GM-CSF (compared to GM-CSF free control),"P. aeruginosa PAO1 [3]; total viable cells, 17 pM GM-CSF, 200 μg/mL ciprofloxacin",−10.3 ± 21.5%
same,% change in avg. CFU/mL by GM-CSF (compared to GM-CSF free control),"P. aeruginosa PAO1 [3]; total viable cells, 17 pM GM-CSF, 200 μg/mL gentamicin",−15.9 ± 7.4%
same,% change in avg. CFU/mL by GM-CSF (compared to GM-CSF free control),"P. aeruginosa PAO1 [3]; total viable cells, 17 pM GM-CSF, 200 μg/mL tetracycline",−1.0 ± 12.4%
same,% change in avg. CFU/mL by GM-CSF (compared to GM-CSF free control),"P. aeruginosa PAO1 [3]; total viable cells, 17 pM GM-CSF, 200 μg/mL tobramycin",+3.1 ± 18.6%
